Strand notation (5' to 3'): a small letter for the sugar, then the base; units joined by * are phosphorothioate-linked, units joined directly phosphodiester-linked; [ ] holds rarer units or linkages, { } end groups; capitals alone tell only the bases. l = locked nucleic acid (LNA); [5mC] = 5-methylcytosine; d = 2'-deoxy (DNA)
System: ApoB mRNA
Assay: Knock down of ApoB mRNA in vivo (qPCR on liver and kidney RNA)
Details: C57BL6/J mice, single sc dose 0.25 mg/kg GalNAc2 or equimolar amounts; for down regulation of ApoB mRNA in kidney: sacrificed at day 10, kidney, qPCR (FIG. 7B); for ApoB mRNA knock down in the liver: sacrificed at day 10, liver, qPCR (FIG. 7A)
Method: To compare the effect of different GalNAc constructs C57BL6/J mice were injected sc with a single dose saline or 0.25 mg/kg GalNAc2 cluster conjugated LNA-antisense oligonucleotide (GalNAc2) or equimolar amounts of LNA antisense oligonucleotides conjugated to the GalNAc constructs of the invention (FIGS. 6 E, I, M and N) or unconjugated LNA antisense oligonucleotide (see Example 2, table 1 for details) and sacrificed at days 10 where liver and kidney were isolated.
At sacrifice RNA was isolated from liver and kidney and subjected to qPCR with ApoB specific primers and probe to analyze for ApoB mRNA knockdown as described in the protocol below.
The animals were anaesthetised with 70% CO2-30% O2 and sacrificed by cervical dislocation. One half of the large liver lobe and one kidney were minced and submerged in RNAlater.
Total RNA was extracted from a maximum of 30 mg of tissue/sample, homogenized by bead-milling in the presence of lysis buffer (MagnaPure LC RNA Isolation Tissue buffer (#03604721001; Roche)) according to the manufacturer's instructions. The RNA was purified on a MagnaPure 96 System; Roche using Cellular RNA Large Volume Kit (#05467535001; Roche) using the manufacturer's standard protocol. First strand synthesis was performed using Reverse Transcriptase reagents from Ambion according to the manufacturer's instructions.
For each sample 0.5 μg total RNA was adjusted to (10.8 μl) with RNase free H2O and mixed with 2 μl random decamers (50 μM) and 4 μl dNTP mix (2.5 mM each dNTP) and heated to 70° C. for 3 min after which the samples were rapidly cooled on ice. 2 μl 10× Buffer RT, 1 μl MMLV Reverse Transcriptase (100 U/μl) and 0.25 μl RNase inhibitor (10 U/μl) were added to each sample, followed by incubation at 42° C. for 60 min, heat inactivation of the enzyme at 95° C. for 10 min and then the sample was cooled to 4° C. cDNA samples were diluted 1:5 and subjected to RT-QPCR using Taqman Fast Universal PCR Master Mix 2× (Applied Biosystems Cat #4364103) and Taqman gene expression assay (mApoB, Mn01545150_ml and mGAPDH #4352339E) following the manufacturers protocol and processed in an Applied Biosystems RT-qPCR instrument (7500/7900 or ViiA7) in fast mode.

Substance | down regulation of ApoB mRNA in kidney | ApoB mRNA knock down in the liver
N: trivalent GalNAc construct with spacer, chain length 30, conjugated to oligonucleotide SEQ ID NO: 2 (antisense CAGCATTGGTATTCA; sugars from the 5' end d2 l2 d8 l3, [5mC] at 4, 14, backbone not given here; further chemistry not fully specified) | higher for the unconjugated LNA oligonucleotide (control) than for the GalNAc conjugated compounds | comparable effect on the target mRNA (ApoB mRNA) to the GalNAc2 cluster
GalNAc2: SEQ ID NO: 1 attached to the GalNAc2 cluster by a phospothioate group; SEQ ID NO: 20 in WO 2014/076196 (antisense lG*l[5mC]*dA*dT*dT*dG*dG*dT*dA*dT*lT*l[5mC]*lA; GalNAc2 cluster attached via phosphorothioate, end not given here) [reference compound] | higher for the unconjugated LNA oligonucleotide (control) than for the GalNAc conjugated compounds | 
I: trivalent GalNAc construct, chain length 16, conjugated to oligonucleotide SEQ ID NO: 2 (antisense CAGCATTGGTATTCA; sugars from the 5' end d2 l2 d8 l3, [5mC] at 4, 14, backbone not given here; trivalent GalNAc conjugate, first linkages phosphodiester) | higher for the unconjugated LNA oligonucleotide (control) than for the GalNAc conjugated compounds | comparable effect on the target mRNA (ApoB mRNA) to the GalNAc2 cluster
Control: unconjugated oligonucleotide of SEQ ID NO: 1 (5′G^mCattggtatT^mCA-3′), without any GalNAc moieties attached (DNA GCATTGGTATTCA; LNA modifications, chemistry not fully specified) [reference compound] | higher | 
E: trivalent GalNAc construct, chain length 10, conjugated to oligonucleotide SEQ ID NO: 2 (5′ caG^mCattggtatT^mCA-3′) (antisense CAGCATTGGTATTCA; sugars from the 5' end d2 l2 d8 l3, [5mC] at 4, 14, backbone not given here; trivalent GalNAc conjugate, first linkages phosphodiester) | higher for the unconjugated LNA oligonucleotide (control) than for the GalNAc conjugated compounds | comparable effect on the target mRNA (ApoB mRNA) to the GalNAc2 cluster
M: trivalent GalNAc construct with spacer, chain length 16, conjugated to oligonucleotide SEQ ID NO: 2 (antisense CAGCATTGGTATTCA; sugars from the 5' end d2 l2 d8 l3, [5mC] at 4, 14, backbone not given here; further chemistry not fully specified) | higher for the unconjugated LNA oligonucleotide (control) than for the GalNAc conjugated compounds | comparable effect on the target mRNA (ApoB mRNA) to the GalNAc2 cluster

Reference: patent US11505569B2, “GalNAc phosphoramidites, nucleic acid conjugates thereof and their use” (Hoffmann-La Roche, Inc., priority 2014, dated 2022)
